SMILES strings stand for the structures.

As a reminder, the melting point is the temperature of the solid-liquid transition. Molecule `CC(C)(O)COCc1onc(-c2ccccc2)c1-c1ccc(S(N)(=O)=O)cc1` returned a melting point of 160 to 162 °C. The molecule `C#CCOC(=O)c1ccc(SC(C)CCCC(C)C)cc1` (stereo not given) showed a melting point of 130 to 131 °C. The figure for `Cc1cc(C)c(C=NNC(=O)c2ccc(O)cc2)[nH]1` is 261 °C; for `CC(=O)OCc1cccc(-c2ccco2)c1C` it is 48.5 to 50 °C; for `CC(C)N1CC(CCN2CCN(c3ccccc3)CC2)OC1=O` (stereo not given) it is 74 to 75 °C. The figure for `CCOP(=O)(CCOC(=O)c1c(I)c(NC(C)=O)c(I)c(NC(C)=O)c1I)OCC` is 249 to 251 °C; for `Cc1nc2c(c3c1[nH]c1cc(F)ccc13)C(=O)CC(C(C)C)C2` (stereo not given) it is 285 to 286 °C. Molecule `O=C(N[C@@H](Cc1ccccc1)C(=O)NC(O)C(=O)O)OCc1ccccc1` (stereo not given in full) came in with a melting point of 117 to 127 °C. The figure for `Fc1ccc(-c2cc(C(F)(F)F)n3ncc(-c4ccncc4)c3n2)cc1Cl` is 265 °C. The figure for `CC(C)N(CCS(=O)(=O)c1ccc(F)cc1)C(=O)Oc1ccccc1` is 94 to 95 °C. `COc1cc(C(=O)NS(=O)(=O)c2ccccc2C)ccc1Cc1cccc2ccc(C(=O)NCC(C)C)cc12` came in with a melting point of 212 to 214 °C. As for `CCCN=CNc1cccc(O)n1`, the figure is 178 to 179 °C; as for `CC(C)(C)c1cc(-n2nc3ccc(Sc4ccc5nn(-c6cc(C(C)(C)C)cc(C(C)(C)C)c6O)nc5c4)cc3n2)c(O)c(C(C)(C)C)c1`, 245 to 246 °C. The figure for `CN(C)CCCc1ccc(C(=O)/C=C/c2ccc(Cl)cc2)cc1` is 83 to 86 °C; for `CNc1ccc(Cl)cc1` it is 72 to 74 °C. As for `Nc1cc(OCCO)ncn1`, the figure is 133 to 137 °C; as for `CC(C)(CO)COc1ccc(NC(=O)c2cc3ccccc3s2)cc1C#N`, 188 to 189 °C. As for `O=Cc1ccc(OCCc2coc(-c3ccccc3)n2)cc1`, the melting point lay in the range of 92 to 97 °C. As to `CN(Cc1ccccc1)C(=O)c1ccc2nonc2c1`, the melting point was in the range of 105 to 106 °C. With `COc1ccc(C2=NN(c3ccccc3C)C(=O)[C@H]3CC=CC[C@@H]23)cc1OC` (relative stereo), the melting point lay within 144 to 145 °C. As to `O=[N+]([O-])c1ccc(Nc2c(F)c(F)nc(F)c2F)c(C(F)(F)F)c1`, the melting point lay in the range of 104 to 105 °C.

For `CCCCOC(=O)c1ccc(OC(=O)C(=O)Oc2ccc(C(=O)OCCCC)cc2)cc1`, the melting point lay within 100 to 102 °C. Take `CC(=Cc1ccccc1)c1ccc2c(c1)SC(C)(C)S2`: the melting point was in the range of 57 to 58 °C. For the molecule `COC(=O)c1cc(CCCNCc2ccccc2)ccc1OCc1ccccc1`, the melting point was in the range of 75 to 77 °C. With `NC1=C(C(=O)c2ccc(Cl)cc2Cl)OC2N=C(O)C=CC12` (stereo not given), the melting point was over 305 °C. As for `CCNC(=O)N1C(=O)Cc2cc(Cl)ccc21`, the figure is 121 to 122 °C. Molecule `O=CCC(c1ccccc1)c1cc(Br)ccc1OCc1ccccc1` (stereo not given) registered a melting point of 99 to 100 °C. For the molecule `Cc1cc(-n2ccnc2)c2cccc(OCc3c(Cl)ccc(S(=O)(=O)N4CCC[C@H]4C(=O)NC4CC4)c3Cl)c2n1`, the melting point came out at 108 °C. The figure for `CCOC(=O)c1ccc(NC(=O)C=C(c2ccccc2)c2ccc(C)cc2)cc1` is 122 to 124 °C; for `CC(C)(C)NC(=O)[C@@H]1C[C@H](N2CCOCC2)CN1C(=O)OC(C)(C)C` it is 172 to 173 °C. `CCc1nn(Cc2cccnn2)c2c(=O)[nH]c(-c3cc(S(C)(=O)=O)ccc3OCC(C)C)nc12` gave a melting point of 231 to 234 °C. The figure for `CCOC(=O)c1ncc2[nH]c3c([N+](=O)[O-])cccc3c2n1` is 318 to 325 °C; for `CCOc1ccc2c(Nc3ccc(Cl)cc3F)c(C#N)cnc2c1` it is 221 to 224 °C; for `Cc1c(-c2ccco2)c(N2CC[C@H](N(C)C)C2)c2oc(C3CC3)nc2c1C#N` it is 158 to 159 °C. For the molecule `Nc1cc(Oc2cc(Cl)cc(Cl)c2)nc(C(=O)O)c1Cl`, the melting point came to 196 °C. Consider `CN1C(=O)C2(COc3cc4c(cc32)OCCO4)c2c(OCc3ccccc3)cccc21` (stereo not given), for which the melting point lay in the range of 198 to 200 °C. Molecule `CC(C)Cc1nn(C)c(=O)c2c(SCCCO)n(Cc3ccccc3)cc12` came in with a melting point of 91 to 92 °C. The figure for `CCc1cccc(C)c1N(CCCC(=O)O)C(=O)CCN(C(C)=O)c1c(C)cccc1C` is 139 to 141 °C; for `CN1CCN(C(=O)Nc2cc(Br)ccc2N2CCc3cc(Br)ccc32)CC1` it is 118 to 120 °C. The figure for `OC1Cc2cccc(Br)c2C1` (stereo not given) is 80 °C; for `CC(C)n1nc(CC(=O)c2cccc(F)c2)ccc1=O` it is 80 to 81 °C; for `COc1ccc(-c2c(Cl)c(CN3C(=O)CCC3=O)nc3sc4c(c23)CCC(C(=O)O)C4)cc1` (stereo not given) it is 258 to 259 °C.

On to `OCCNc1nc2ccc(Cl)cc2c2nc(-c3ccco3)nn12`, for which the melting point lay in the range of 214 to 217 °C. As for `CCCc1nc(N)nc(N)c1N1CCN(c2ccc(C(=O)N[C@@H](CCC(=O)O)C(=O)O)cc2)CC1`, the figure is 280 to 284 °C; as for `Cc1cc(O)c(O)c(O)c1`, 114 to 121 °C. On to `O=C(COc1ncc(Cl)cc1Cl)Nc1ccccc1`, for which the melting point was in the range of 164 to 166 °C. The figure for `CN(CCOc1cccc2ccn(C(=O)OC(C)(C)C)c12)C(=O)OC(C)(C)C` is 74 to 76 °C. Consider `CC1Oc2c(C#N)cc(F)cc2C=C1n1nc(C(F)(F)F)n(C)c1=S` (stereo not given), for which the melting point came out at 144 °C. As for `COc1cc(Cl)c(Cl)cc1Oc1ccc(Cl)cc1`, the figure is 105 °C; as for `CCOc1cc(C(=O)c2c(-c3ccc(OC)cc3)sc3cc(OC)ccc23)cc(OCC)c1OCC`, 108 to 110 °C. The figure for `NC(=O)c1cc(-n2c(-c3ccccc3)cc3c2CCc2ccccc2-3)ccc1O` is 213 to 215 °C. The figure for `CC(C)OC(=O)C=C1CN=C(c2ccccc2F)c2cc(Cl)ccc2N1` is 144 to 145 °C. In the case of `CC(C)(C)OC(=O)N1CCC(c2ccc(COc3cccc([N+](=O)[O-])c3)nc2)CC1`, the melting point is 94 to 96 °C. Take `COC1(C(=O)O)C=CC(OCc2ccccc2)=CC1` (stereo not given): the melting point was 172 to 173 °C.

Turning to `COc1cc(Br)c2nc(-c3ccc(OC)c(F)c3)cc(Cl)c2c1`, the melting point is 176 to 177 °C.

As to `Cc1nn2cccnc2c1C#N`, the melting point is 179 to 181 °C. The figure for `CCOC(=O)c1cn2c(n1)CN(C(=O)CCl)c1ccccc1-2` is 178 to 183 °C; for `CCCC(O)c1cnc2nc(C)c(OCC)cc2c1Nc1ccc(OC)cc1` (stereo not given) it is 120 to 124 °C. Consider `c1ccc(Oc2cccc(Nc3nnc(Cc4ccncc4)c4ccccc34)c2)cc1`, for which the melting point lay in the range of 186 to 189 °C. The molecule `CCCCN1CCN(CCCC)C2SC(=C3C(=O)CC(c4ccccc4)CC3=O)SC21` (stereo not given) showed a melting point of 130 to 132 °C.

In the case of `CN(C)C=NS(=O)(=O)c1cc(CCNC(=O)C(F)(F)F)ccc1OCCOC(F)(F)F`, the melting point is 111 to 114 °C. In turn, `CC[C@H](C)[C@H](Nc1nc(OC)ns1)C(=O)N1CCC[C@H]1C(=O)O` came in with a melting point of 112 to 114 °C. Consider `NC(=O)c1cc(-c2ccc(Cl)cc2)[nH]c1Cl`, for which the melting point was over 200 °C. As for `Nc1nc(N)nc(-c2ccc(-c3ccccc3[N+](=O)[O-])cc2)n1`, the figure is over 250 °C; as for `COc1ccc(-n2nc(C(F)(F)F)cc2-c2ccc(S(C)(=O)=O)cc2)cc1F`, 178 to 180 °C.

In turn, `CCc1cc(O)cc2c3c([nH]c12)C(CC)(CC(=O)OC)OCC3` (stereo not given) registered a melting point of 153 to 154 °C. `CN(C)C=NC1CCN(Cc2ccccc2)CC1`: the melting point lay within 61 to 65 °C.

`COCC(F)Cn1ccnc1[N+](=O)[O-]` (stereo not given) registered a melting point of 39 to 44 °C. Molecule `CCCCc1oc2ccc(NS(=O)(=O)c3ccc(C)cc3)cc2c1C(=O)c1ccc(OCCCN(CCCC)CCCC)cc1` displayed a melting point of 110 °C.

For the molecule `COC(CC(=O)c1ccccc1)c1ccc(Cl)cc1F` (stereo not given), the melting point was in the range of 59 to 61 °C. The figure for `O=C(O)c1c([N+](=O)[O-])ccc2c1OCCO2` is 188 °C; for `O=C(C=Cc1ccccc1)c1ccc(OCc2ccccc2)cc1O` it is 116 to 118 °C. As for `Cc1cc(N)c(C(=O)Cc2nnnn2C)cc1C`, the figure is 162 to 165 °C; as for `OC1CSC(Oc2cc(F)ccc2-c2ccncc2)C(O)C1O` (stereo not given), 209 °C. As for `CC(C)OC1C=CC(=O)N1` (stereo not given), the figure is 79 to 81 °C.

With `C=CCc1c(O)ccc2oc(C(=O)c3ccc(F)cc3)c(C)c12`, the melting point fell in the range of 164 to 166 °C. As for `CC(C)(C)c1ccc(-c2nnc(-c3ccc(C(=O)O)cc3[N+](=O)[O-])o2)cc1`, the figure is 233 to 235 °C; as for `Nc1nc2ccccc2c2c1ncn2CCOCCCc1ccncc1`, 160 to 162 °C; as for `CCOC(=O)C1=C(C)NC(C=NO)=C(C(=O)OCC)C1c1ccccc1Cl` (stereo not given), 136 to 137 °C.

`O=C(NCc1ccc(C(=O)O)c(OCc2ccccc2)c1)OCc1ccccc1` displayed a melting point of 139 to 140 °C.

Turning to `NC(=O)CSC(c1ccccc1)c1ccccc1`, the melting point fell in the range of 104 to 110 °C. As for `CON(C)C(=O)C1(C)CCc2c(C)c(O)c(C)c(C)c2O1` (stereo not given), the figure is 139 to 140 °C; as for `Fc1ccc(-c2nc(SC(F)(F)C(F)F)[nH]c2-c2cccs2)cc1`, 164 to 168 °C; as for `CN1C(C(=O)Nc2ccc(F)cc2)=C(O)c2ccc3ccccc3c2S1(=O)=O`, 284 to 285 °C. Consider `COc1nc2c(S(=O)(=O)c3ccccc3)c(SC)nn2c(N2CCN(C)CC2)c1C`, for which the melting point lay within 207 to 208 °C. As for `CCCCCN1Cc2cccc(Cl)c2S1(=O)=O`, the figure is 46 to 48 °C. The figure for `COc1ccc(Nc2c(C#N)cnc3cc(OC)c(OC)cc23)cc1OC` is 230 to 240 °C. As for `O=C(O)c1cc2cc(-c3ccc(O)cc3)ccc2o1`, the figure is 297 to 300 °C; as for `CCCC(=O)c1cnc2c(F)cccc2c1Cl`, 57 to 60 °C; as for `O=C(NN1CCN(C(=O)Nc2ccccc2)CC1)c1ccc(F)cc1`, 263 to 266 °C.

The values are drawn from a melting point compilation (Tetko et al.; mined from patent text by program, amines drawn as free bases though some values may be those of a salt).
